This test concerns the target MBP W62F mutant (Escherichia coli, UniProt P0AEX9, S259C/W88F). The format is binding. Particulars: no sAB.

This is an account of results in article PMC3077571 (Nature structural & molecular biology, 2011).

Regarding `OC[C@H]1O[C@H](O[C@H]2[C@H](O)[C@@H](O)C(O)O[C@@H]2CO)[C@H](O)[C@@H](O)[C@@H]1O` (mixture of isomers) [maltose], the “decrease in maltose binding energy caused by W62F mutation” value was ~ 2 kcal/mol.
